From patent US20220296108A1, “METHOD AND APPARATUS FOR QUANTITATION OF MICROCIRCULATION” (Seoul National University Hospital, priority 2019, published 2022)

Assays:
[1] = system: CLP mouse model; test: Histological analysis of the number of sequestered neutrophils (Ly6G+ cells) in Mac-1-inhibited CLP mouse model; type: in vivo; conditions: vs CLP mouse model (Fc) and normal group (Sham), FIG. 28B
Text: Specifically, lung tissues were harvested after intravital imaging of the mouse models. The tissues were perfused and fixed with 4% paraformaldehyde and then further fixed overnight in 4% paraformaldehyde. For H&E (hematoxylin and eosin) staining, the fixed tissues were processed using standard procedures, embedded in paraffin and then sliced into 4-μm sections, followed by conventional H&E staining.

[2] = system: CLP mouse model; test: Arterial blood gas analysis in CLP mouse model before and after abciximab; type: in vivo; conditions: post-Abc CLP mouse vs normal group (Sham)
Procedure: In addition, arterial blood gas analysis was performed to assess the oxygen partial pressure and carbon dioxide partial pressure in the arterial blood of the pre-Abc mouse model and the post-Abc mouse model. Specifically, a 1-mL syringe with a 22-gauge needle was coated with heparin and introduced into the left ventricle of the heart of the normal mouse model (Sham) (n=8), pre-Abc mouse model (Fc) (n=10) and post-Abc mouse model (Abc) (n=6). Then, about 200 μL of blood was sampled and analyzed with an i-STAT handheld blood analyzer (G3 cartridge, Abbott Point of Care Inc.). The mice were euthanized in a CO2 chamber right after the blood sampling.

[3] = system: CLP mouse model; test: Functional capillary ratio (FCR) by intravital lung imaging in Mac-1-inhibited CLP mouse model
Procedure: CLP model was performed by a single experienced operator according to a previously described method. Specifically, 75% of the cecum of the LysM^GFP/+ mouse was ligated with 6-0 black silk and single puncture with a dual hole in the distal cecum was made with a 21-gauge needle. After the puncture, the cecum was gently squeezed to confirm the patency of the puncture hole for extrusion of feces. The cecum was replaced to the abdominal cavity and the abdominal incision was closed with 4-0 black silk. A normal group (sham group) underwent the same surgical procedure except the cecal ligation and puncture. […]
Specifically, three continuous laser modules (488 nm (MLD488, Cobolt), 561 nm (Jive, Cobolt) and 640 nm (MLD640, Cobolt)) were utilized as excitation light sources for multi-color fluorescence imaging. […] The fluorescence signals emitted from the lung of the mouse model on a XYZ translational 3D stage (3DMS, Sutter Instrument) were epi-detected by the objective lenses. De-scanned three-color fluorescence signals were spectrally divided by diachronic beam splitters (DBS4; FF560-Di01, DBS5; FF649-Di01, Semrock) and then detected by a photomultiplier (PMT; R9110, Hamamatsu) through bandpass filters (BPF1; FF02-525/50, BPF2; FF01-600/37, BPF3; FF01-685/40, Semrock). […]

Substance: abciximab
- Number of sequestered neutrophils (Ly6G+ cells) [1]: recovered to a level comparable to that of the normal group
- Oxygen partial pressure in arterial blood ([2]; FIG. 31A): comparable to that of the normal group
- Carbon dioxide partial pressure in arterial blood ([2]; FIG. 31B): comparable to that of the normal group
- Functional capillary ratio (FCR) increase after vs before abciximab administration ([3]; CLP mouse imaged 6 hours after CLP (pre-Abc), then 30 minutes after abciximab (post-Abc)): ≥ 2 times
- Dead space and functional capillaries in pulmonary microcirculation imaging ([3]; CLP mouse, vs CLP mouse model (Fc), FIG. 27): dead space was decreased
